Test results from US11414465B2, “Plasma membrane intrinsic aquaporin for absorbing and transporting neonicotinoid insecticides, and coding gene and use therefor” (JIANGSU ACADEMY OF ARGRICULTURAL SCIENCES, priority 2020, dated 2022).

What was measured:
Chinese cabbage plants = settings: 2 mg/L compound in Hoagland nutrient solution, mercuric chloride or glycerol added, 48 h
BraPIP1;1 gene = test: Response of BraPIP1;1 gene expression to thiamethoxam (quantitative RT-PCR); format: in vivo, Chinese cabbage; settings: 10 mg/L thiamethoxam, p<0.001
Description: Seedlings of Chinese cabbage with the same growth condition were put in a Hoagland's nutrient solution containing 10 mg/L thiamethoxam (the Hoagland's nutrient solution was purchased from Beijing Coolaber Technology Co., Ltd.), and treated in the Hoagland's nutrient solution for 6 and 24 hours (treatment group).
At the same time, a Hoagland's nutrient solution without thiamethoxam was used as the control group.
Treated root and aboveground tissue RNA of two groups was extracted respectively, the 1st strand cDNA was obtained by reverse transcription as a template, specific expression primers were designed based on the cDNA sequence of BraPIP1;1, the Chinese cabbage Tublin was used as an internal reference, and the expression of the gene transcription level was detected by quantitative RT-PCR.
The quantification instrument is 7500 Real Time PCR System (Applied Biosystem), and a qPCRT system was configured according to the instructions of a kit 2×TSINGKE Master qPCR Mix (Tsingke Biotechnology Co., Ltd.). The PCR program is: pre-denaturation at 95° C. for 10 min, at 95° C. for 15 s, and at 60° C. for 20 s, for 40 cycles.

[1] = system: Saccharomyces cerevisiae INVSc1 (pYES2-BraPIP1;1); test: Growth experiment of recombinant yeast strains under thiamethoxam stress; format: cell-based; settings: 10-1600 mg/L thiamethoxam, stress at 30° C. for 72 h, compared with wild strain (pYES2)
Description: (§1) The BraPIP1;1 gene cloned in Example 1 was constructed into the Saccharomyces cerevisiae overexpression vector pYES2 (purchased from Clotech) referring to (He Lin, Jiang Lili, Wang Yucheng, Analysis of the stress tolerance of Tamarix thioredoxin peroxidase (ThPrx1) gene transformed into yeast, Journal of Northeast Forestry University, 2011, Vol. 39. No. 4, 101-104), and the constructed recombinant plasmid was named pYES2-BraPIP1;1. The pYES2-BraPIP1;1 and an empty vector pYES2 were transformed into Saccharomyces cerevisiae INVSc1 by lithium acetate precipitation. The recombinant yeasts were named INVSc1 (pYES2-BraPIP1;1) and INVSc1 (pYES2), respectively.
(§2) Induction of recombinant strains: Single colonies of the control yeast INvsc1 (pYES2) and the recombinant yeast INvscl (pYES2-BraPIP1;1) were picked, inoculated in an SC-U liquid medium (with glucose of a final concentration of 2%) respectively, and incubated at 30° C. for 24 h on a shaker. The OD600 value is measured, and the amount of bacterial solution required is calculated such that the OD600 of bacteria in 10 ml of induction medium (SC-U+2% galactose) is 0.4. Induce expression was carried out at 30° C. for 24 h. The OD600 value was measured again, and the amount of bacterial solution required was calculated. […]

[2] = system: Saccharomyces cerevisiae INVSc1 (pYES2-BraPIP1;1); test: Thiamethoxam content experiment, recombinant yeast strain; format: cell-based; settings: 30° C., 6 h
Description: as §1, §2

[3] = system: Saccharomyces cerevisiae INVSc1 (pYES2); test: Thiamethoxam content experiment, control yeast strain; format: cell-based; settings: 30° C., 6 h
Description: as §1, §2

[4] = system: BraPIP1;1 overexpression Arabidopsis thaliana (BraPIP1;1#4, BraPIP1;1#6); test: Main root length of BraPIP1;1 transgenic Arabidopsis thaliana under thiamethoxam stress; format: in vivo; settings: 1/2MS media with 10 and 50 mg/L thiamethoxam, 20 days, compared with wild type Col-0
Description: (§3) The BraPIP1;1 gene cloned in Example 1 was constructed into the plant binary overexpression vector pCAMBIA2301 (purchased from Clotech). By the Agrobacterium tumefaciens-mediated method (Valvekens, D., van Montagu, M., and Lijsebettens, M. V. (1988). Agrobacterium tumefaciens-mediated transformation of Arabidopsis thaliana root explants by using kanamycin selection. Proc. Natl. Acad. Sci. USA 85, 5536-5540.), the inflorescence of wild-type Arabidopsis thaliana Col-0 (purchased from ATCC, USA) was infected with the constructed overexpression vector. Through screening (resistance pure line seedlings were screened on a ½MS plate containing 50 μg/mL kanamycin), BraPIP1;1 overexpression Arabidopsis thaliana pure line materials BraPIP1;1#4 and BraPIP1;1#6 were identified and obtained.
The pure line seeds of the BraPIP1;1#4 and BraPIP1;1#6 obtained in the previous transgenic experiment and a wild-type Col-0 material (WT) were germinated on a ½MS medium respectively, and then transferred to ½MS media (Qingdao Hopebio Co., Ltd., Item No. HB8469-12, PH=5.6) containing 10 and 50 mg/L thiamethoxam respectively. After 20 days, the growth of the seedlings was observed and the main root length was measured.

[5] = system: BraPIP1;1 overexpression Arabidopsis thaliana; test: Thiamethoxam content of BraPIP1;1 transgenic Arabidopsis thaliana grown in soil; format: in vivo; settings: soil containing 10 mg/L thiamethoxam, 20 days, compared with wild plant
Description: as §3
In addition, germinated seedlings of the same size were transplanted into soil containing 10 mg/L thiamethoxam, and after 20 days of culture, the root and aboveground samples of the transgenic Arabidopsis thaliana and the control were harvested respectively, washed with deionized water, and weighed.

Structure (SMILES) | content of the compound in the plants after the water channel inhibitors were added (Chinese cabbage plants) | expression abundance of BraPIP1;1 in the aboveground parts vs control (BraPIP1;1 gene; 6 hours) | expression abundance of BraPIP1;1 in the roots vs control (BraPIP1;1 gene; 6 hours) | expression abundance of BraPIP1;1 in the aboveground parts vs control (BraPIP1;1 gene; 24 hours) | growth of transgenic strain (pYES2-BraPIP1;1) with thiamethoxam [1] | thiamethoxam content of the recombinant strain ([2]; 10 mg/L thiamethoxam) [ng/OD] | thiamethoxam content of the recombinant strain (pYES2-BraPIP1;1) ([2]; 100 mg/L thiamethoxam) [ng/OD] | thiamethoxam content of the control strain ([3]; 10 mg/L thiamethoxam) [ng/OD] | thiamethoxam content of the control strain (pYES2) ([3]; 100 mg/L thiamethoxam) [ng/OD] | main root length of the transgenic strain [4] | thiamethoxam content of the aboveground parts of the transgenic plant [5] | thiamethoxam content of the roots of the transgenic plant [5]
CN1CCCC1c1cccnc1 (stereo not drawn) [nicotine] | did not change significantly |  |  |  |  |  |  |  |  |  |  | 
CN1COCN(Cc2cnc(Cl)s2)/C1=N\[N+](=O)[O-] [thiamethoxam] |  | significantly increased | significantly increased | significantly increased | grows weaker than the wild strain | 0.0078 | 0.021 | 0.0038 | 0.011 | shorter than that of the wild type | higher than that of the wild plant | higher than that of the wild plant
